In patent publication US20250194649A1, “FATTY ACID AMIDES AND THEIR USE AS FLAVOR MODIFIERS” (Firmenich SA, priority 2022, published 2025):

Assays:
Assay type in all cases: in vivo
[1] = Sensory panel (8 experts): sample added to reference water solution containing 4% sucrose; conditions: dosage 0.2 ppm; scale −5 (strong masking) to 5 (strong enhancing), 0 = reference 4% sucrose in water
From the text: (§1) A panel consisting of 8 experts evaluating the samples adding in reference at 0.2 or 5 ppm for their sensory properties (sweet, licorice, sweet lingering) on a scale of −5 to 5 (−5 denoted strong masking effect and 5 denoted strong enhancing effect, 0 being the intensity of a reference water solution containing 4% sucrose, or 0.02% SG95. The results are shown in Table 2.

[2] = Sensory panel (8 experts): sample added to reference water solution containing 0.02% SG95 (stevia extract); conditions: dosage 0.2 ppm; scale −5 to 5, 0 = reference 0.02% SG95 in water
From the text: as §1

[3] = Sensory panel (8 experts): sweet intensity of sub-threshold sweetener solutions with and without R1 at 50 ppm; conditions: for Sweet intensity of the compound solution: without R1
From the text: A panel consisting of 8 experts evaluating R1 adding in various sweeteners at 50 ppm for their sweet properties (0 denoted no sweet taste, 10 denoted too strong sweet taste). The sweetener dosage were designed under their sweetness threshold in water.

[4] = compound 2.5 ppm in water, scale 0 to 10
[5] = compound 2.5 ppm plus R1 (Sichuan pepper oil) 50 ppm, scale 0 to 10
[6] = compound 10 ppm in water, scale 0 (no sweet taste) to 10 (too strong sweet taste)
[7] = compound 10 ppm plus R1 (Sichuan pepper oil) 50 ppm, scale 0 to 10

## C/C=C/C=C/C=C\CC/C=C/C(=O)NCC(C)(C)O [Compound S1, Hydroxy-α-sanshool]
[1]
  ΔSweet intensity to sucrose solution: +0.3
[2]
  ΔLicorice intensity to stevia extract solution: +0.3
  ΔLingering intensity to stevia extract solution: −0.8
  ΔSweet intensity tostevia extract solution: +0.1

## C=C1C[C@@]23CC[C@H]4[C@@](C)(CCC[C@@]4(C)C(=O)O[C@@H]4O[C@H](CO)[C@@H](O)[C@H](O)[C@H]4O)[C@@H]2CC[C@]1(O[C@@H]1O[C@H](CO)[C@@H](O)[C@H](O[C@@H]2O[C@H](CO)[C@@H](O)[C@H](O)[C@H]2O)[C@H]1O[C@@H]1O[C@H](CO)[C@@H](O)[C@H](O)[C@H]1O)C3 [RebA, Rebaudioside A]
[3]; [4]
  Sweet intensity of the compound solution: 0.19
[3]; [5]
  Sweet intensity of the compound and R1 blend solution: 1.9

## C=C1C[C@@]23CC[C@H]4[C@@](C)(CCC[C@@]4(C)C(=O)O[C@@H]4O[C@H](CO)[C@@H](O)[C@H](O)[C@H]4O[C@@H]4O[C@H](CO)[C@@H](O)[C@H](O)[C@H]4O)[C@@H]2CC[C@]1(O[C@@H]1O[C@H](CO)[C@@H](O)[C@H](O)[C@H]1O[C@@H]1O[C@H](CO)[C@@H](O)[C@H](O)[C@H]1O)C3 [Reb E, Rebaudioside E]
[3]; [4]
  Sweet intensity of the compound solution: 0.06
[3]; [5]
  Sweet intensity of the compound and R1 blend solution: 1.5

## O=C1C[C@@H](c2ccc(O)cc2)Oc2cc(O)cc(O)c21 [Naringenin, naringenin]
[3]; [6]
  Sweet intensity of the compound solution: 0.13
[3]; [7]
  Sweet intensity of the compound and R1 blend solution: 1.3

## malonyl rebaudioside E [Malonyl Reb E]
[3]; [4]
  Sweet intensity of the compound solution: 0.13
[3]; [5]
  Sweet intensity of the compound and R1 blend solution: 1.5

## O=C1C[C@@H](c2ccc(O)c(O)c2)Oc2cc(O)cc(O)c21 [Eriodictyol, eriodictyol]
[3]; [6]
  Sweet intensity of the compound solution: 0.03
[3]; [7]
  Sweet intensity of the compound and R1 blend solution: 1.7

## α-mogroside IV
[3]; [4]
  Sweet intensity of the compound solution: 0.13
[3]; [5]
  Sweet intensity of the compound and R1 blend solution: 1.8

## C[C@H](CC[C@@H](O[C@@H]1O[C@H](CO[C@@H]2O[C@H](CO)[C@@H](O)[C@H](O)[C@H]2O)[C@@H](O)[C@H](O)[C@H]1O[C@@H]1O[C@H](CO)[C@@H](O)[C@H](O)[C@H]1O)C(C)(C)O)[C@H]1CC[C@@]2(C)[C@@H]3CC=C4[C@@H](CC[C@H](O[C@@H]5O[C@H](CO[C@@H]6O[C@H](CO)[C@@H](O)[C@H](O)[C@H]6O)[C@@H](O)[C@H](O)[C@H]5O)C4(C)C)[C@]3(C)[C@H](O)C[C@]12C [Mogroside V, mogroside V]
[3]; [4]
  Sweet intensity of the compound solution: 0.08
[3]; [5]
  Sweet intensity of the compound and R1 blend solution: 1.6

## O=C(CCc1ccc(O)cc1)c1c(O)cc(O[C@@H]2O[C@H](CO)[C@@H](O)[C@H](O)[C@H]2O)cc1O [Trilobatin, trilobatin]
[3]; [6]
  Sweet intensity of the compound solution: 0
[3]; [7]
  Sweet intensity of the compound and R1 blend solution: 1.5

## malonyl rebaudioside A [Malonyl Reb A]
[3]; [4]
  Sweet intensity of the compound solution: 0
[3]; [5]
  Sweet intensity of the compound and R1 blend solution: 1.3

## COc1cc([C@@H]2CC(=O)c3c(O)cc(O)cc3O2)ccc1O [Homoeriodictyol, homoeriodictyol]
[3]; [6]
  Sweet intensity of the compound solution: 0
[3]; [7]
  Sweet intensity of the compound and R1 blend solution: 1.7

## hydroxy-γ-sanshool [Compound S2]
[1]
  ΔSweet intensity to sucrose solution: +0.7
[2]
  ΔLicorice intensity to stevia extract solution: −0.5
  ΔLingering intensity to stevia extract solution: −0.8
  ΔSweet intensity tostevia extract solution: +0.3

## C/C=C/C=C/C=C/CC/C=C/C(=O)NCC(C)(C)O [Compound S3, Hydroxy-β-sanshool]
[1]
  ΔSweet intensity to sucrose solution: +0.5
[2]
  ΔLicorice intensity to stevia extract solution: 0
  ΔLingering intensity to stevia extract solution: −0.4
  ΔSweet intensity tostevia extract solution: +0.2

## C=C1C[C@@]23CC[C@H]4[C@@](C)(CCC[C@@]4(C)C(=O)O[C@@H]4O[C@H](CO)[C@@H](O)[C@H](O)[C@H]4O)[C@@H]2CC[C@]1(O[C@@H]1O[C@H](CO)[C@@H](O)[C@H](O)[C@H]1O)C3 [Rubusoside, rubusoside]
[3]; compound 5 ppm in water, scale 0 to 10
  Sweet intensity of the compound solution: 0
[3]; compound 5 ppm plus R1 (Sichuan pepper oil) 50 ppm, scale 0 to 10
  Sweet intensity of the compound and R1 blend solution: 1.6

## COc1ccc(CCC(=O)c2c(O)cc(O[C@@H]3O[C@H](CO)[C@@H](O)[C@H](O)[C@H]3O)cc2O)cc1O [hesperetin dihydrochalcone 4′-O-glucoside]
[3]; [4]
  Sweet intensity of the compound solution: 0.04
[3]; [5]
  Sweet intensity of the compound and R1 blend solution: 1.9

## COc1ccc(CCC(=O)c2c(O)cc(O[C@@H]3O[C@H](CO)[C@@H](O)[C@H](O)[C@H]3O[C@@H]3O[C@@H](C)[C@H](O)[C@@H](O)[C@H]3O)cc2O)cc1O [NHDC, neohesperidin dihydrochalcone]
[3]; compound 0.5 ppm in water, scale 0 to 10
  Sweet intensity of the compound solution: 0.06
[3]; compound 0.5 ppm plus R1 (Sichuan pepper oil) 50 ppm, scale 0 to 10
  Sweet intensity of the compound and R1 blend solution: 1.1

## hesperidin dihydrochalcone
[3]; [6]
  Sweet intensity of the compound solution: 0.09
[3]; [7]
  Sweet intensity of the compound and R1 blend solution: 1.3
